The values below come from article PMC6396940, “EhFP10: A FYVE family GEF interacts with myosin IB to regulate cytoskeletal dynamics during endocytosis in Entamoeba histolytica” (PLoS Pathogens, 2019).

Ends that are not written are not given here.

Assay [1] has as its target EhMySH3 (SH3 domain of EhMyosin IB) (Entamoeba histolytica, UniProt C4LUC7). Briefly: SPR binding of peptides to immobilized EhMySH3 (Autolab SPR). The note with it: for relative SPR binding response: 0.8 mM of each peptide passed over immobilized EhMySH3, compared with the other peptides; for Kd: SPR kinetic analysis, peptide passed over immobilized EhMySH3, 10 mM HEPES, 150 mM NaCl, 3 mM EDTA, 0.05% NP-40, pH 7.4, 25°C, text: values could not be calculated accurately (peptides about 1000 Da), read-out: Binding affinity (KD, equilibrium dissociation constant). On the procedure: For binding studies of EhMySH3 with peptides, an Autolab SPR apparatus was used at the Advanced Instrumentation Research Facility, Jawaharlal Nehru University, New Delhi, India. Here, the 11-mercaptoundecanoic acid (11MUA) monolayer on the surface of the gold chip (Autolab) was activated by N-hydroxysuccinimide (NHS; 0.05 M)/[…] (EDC; 0.2 M). EhMySH3 protein (ligand) at a concentration of 37 μM was immobilized in channel 1 on the activated surface of the gold chip in 10 mM sodium acetate buffer (pH 5.0) up to 700 RU. During experimentation, channel 1 was used to pass the analytes (peptides) while channel 2 was used as a blank (the signals of the analyte with a ligand-free surface). After ligand immobilization, the surface was blocked with 100 mM ethanolamine at pH 8.5, followed by regeneration using 50 mM NaOH. The different peptides, each at various concentrations, were each injected at a rate of 20 μl/min across the sensor chip surface and the association kinetics and dissociation kinetics were monitored for 200 s and 100 s, respectively. All of the dilutions were done in running buffer, i.e., 10 mM HEPES, 150 mM NaCl, 3 mM EDTA, 0.05% NP-40 surfactant [pH 7.4].
All of the data were recorded at 25°C. For the evaluation of the kinetics, differential sensorgrams were analyzed using Autolab SPR Kinetic Evaluation software.

The target of assay [2] is filamentous rabbit muscle actin (F-actin) (rabbit) (UniProt P68135).
Assay [3] deals with c-terminal SH3 domain of EhMyosin IB (EhMySH3) (Entamoeba histolytica). The assay can be described thus: SPR; Autolab SPR; EhMySH3 immobilised (1.175 ng/mm^3), cterEhFP10 at various concentrations passed over; association 400 s, dissociation 150 s; 25 C.
Assay [4] concerns the target filamentous rabbit muscle actin (F-actin) (rabbit) (UniProt P68135). The assay can be described thus: SPR; Autolab SPR; F-actin immobilised (0.67 ng/mm^3; 50 mM sodium acetate pH 4.1, 0.05 mM CaCl2, 0.05 mM ATP, 0.125 mM DTT), cterEhFP10 at various concentrations passed over; 25 C.
For assay [5], the target named is c-terminal SH3 domain of EhMyosin IB (EhMySH3) (Entamoeba histolytica). Briefly: SPR; Autolab SPR; EhMySH3 immobilised on an 11-MUA gold chip (NHS/EDC, up to 700 RU), peptides injected at 20 ul/min; 10 mM HEPES, 150 mM NaCl, 3 mM EDTA, 0.05% NP-40, pH 7.4; 25 C.

For the molecule “KVAPPIPHR [P2, pseudo-symmetrical class I + II peptide … from EhFP10, co-crystallized with EhMySH3]”, the “relative SPR binding response” value in assay [1] was “highest binding response”.

For the molecule “RPQPPTP [P4, class I peptide RPQPPTP from EhFP10]”, the “relative SPR binding response” value in assay [1] is “weakest binding”.

For the molecule SLPPKPLR [P1], the Kd in assay [1] was 400 µM.

Regarding QHCPNVPII [P5], the Kd in assay [1] is 700 µM.

Take NIVPIQPPQ [P3]: in assay [1], the Kd is 1000 µM.

Turning to “c-terminal domain of EhFP10 (cterEhFP10) (domain or fragment)”, in assay [2], the thickness of actin bundles by TEM, filaments of 4 nm to 7 nm without and bundles with 10 uM to 20 uM cterEhFP10 came to 120 nm. The dissociation constant (Kd) in assay [3] came out at 0.2 µM; in assay [4] it was 0.087 µM.

B1: peptide P3 from Rho family GTPase (peptide)
peptide: NIVPIQPPQ
modifications: not fully specified
On to B1, for which the Kd in assay [5] came out at 1000 µM.

B2: peptide P5 from Rho family GTPase (peptide)
peptide: QHCPNVPII
modifications: not fully specified
In assay [5], B2 came in with a Kd of 700 µM.
